Where “and” joins values, the source holds several entries; their conditions need not be identical. Equal values may be shown once. Where a name gives a salt, the structure may show the parent alone.
How the values were obtained:
[1] = system: Pseudomonas aeruginosa 165; experiment: Ex.3 colony coloration, 5-bromo-4-chloro-3-indolyl nonanoate 250 mg/l, DMSO/Tween 20; assay type: cell-based; further: key: 0: no activity; 0.1: trace of coloration; 0.5: very pale coloration; 1: distinct coloration of low intensity; 2: clear coloration of medium intensity; 3: intense coloration; 4: very intense coloration
Description: (§1) The intensity of coloration corresponds to an arbitrary scale defined as follows:

[2] = system: Salmonella enteritidis 002; experiment: Ex.2 colony coloration, 5-bromo-3-indolyl nonanoate, methanol/bile salts, MacConkey; assay type: cell-based; on intensity of coloration: key: 0: no activity; 0.1: trace of coloration; 0.5: very pale coloration; 1: distinct coloration of low intensity; 2: clear coloration of medium intensity; 3: intense coloration; 4: very intense coloration
Description: (§2) The esterase substrate tested is 5-bromo-3-indolyl nonanoate. A 25 g/l stock solution of substrate is prepared in methanol to which 5 g/l of bile salts have been added. A sufficient volume is added to a supercooled MacConkey medium (without neutral red) to give a substrate concentration of 500 mg/l.
as §1

[3] = system: Escherichia coli 002; experiment: Ex.4 colony coloration, 5-bromo-3-indolyl nonanoate, DMSO/Tween 20, MacConkey; assay type: cell-based; parameters: key: —: absence of colour or intensity; details: 8 ml/l Tergitol 4
[4] = system: Serratia marcescens 038; experiment: Ex.1 colony coloration, 5-bromo-3-indolyl nonanoate, DMSO/Tween 20, MacConkey; assay type: cell-based
Description: (§3) The esterase substrate tested is 5-bromo-3-indolyl nonanoate. A 40 g/l stock solution of substrate is prepared in a mixture of 40% dimethyl sulfoxide and 60% Tween 20. A sufficient volume is added to a supercooled MacConkey medium (without neutral red) to give a substrate concentration of 500 mg/l.
as §1

[5] = system: Staphylococcus aureus 276; experiment: Ex.3 colony coloration, 5-bromo-4-chloro-3-indolyl nonanoate 250 mg/l, DMSO/Tween 20; assay type: cell-based; further: key: 0: no activity; 0.1: trace of coloration; 0.5: very pale coloration; 1: distinct coloration of low intensity; 2: clear coloration of medium intensity; 3: intense coloration; 4: very intense coloration
Description: as §1

[6] = system: Salmonella typhi 118; assay type: cell-based
[7] = system: Hafnia alvei 025; experiment: Ex.4 colony coloration, 5-bromo-3-indolyl nonanoate, DMSO/Tween 20, MacConkey; assay type: cell-based; parameters: key: —: absence of colour or intensity; details: 8 ml/l Tergitol 4
[8] = system: Salmonella arizonae 018; experiment: Ex.2 colony coloration, 5-bromo-3-indolyl nonanoate, methanol/bile salts, MacConkey; assay type: cell-based
Description: as §2, §1

[9] = system: Pseudomonas aeruginosa 165; experiment: Ex.1 colony coloration, 5-bromo-3-indolyl nonanoate, DMSO/Tween 20, MacConkey; assay type: cell-based
Description: as §3, §1

[10] = system: Gram-positive bacteria or yeasts
Description: The esterase substrate tested is 5-bromo-4-chloro-3-indolyl nonanoate. A 40 g/l stock solution of substrate is prepared in a mixture of 40% dimethyl sulfoxide and 60% Tween 20. A sufficient volume is added to a supercooled MacConkey medium (without neutral red) to give a substrate concentration of 250 mg/l.
Microorganisms originating from the Applicant's collection were inoculated onto this medium from a 0.5 McFarland suspension by isolation in three quadrants. The dishes were incubated at 37° C. for 48 hours. The colonies formed were examined visually after 24 and 48 hours of incubation. The coloration of these colonies and the intensity of this coloration were noted.

[11] = system: Salmonella arizonae 018; experiment: Ex.1 colony coloration, 5-bromo-3-indolyl nonanoate, DMSO/Tween 20, MacConkey; assay type: cell-based
Description: as §3, §1

[12] = system: Salmonella typhimurium 010; experiment: as above; assay type: cell-based
Description: as §3, §1

[13] = system: Listeria monocytogenes 023; experiment: Ex.3 colony coloration, 5-bromo-4-chloro-3-indolyl nonanoate 250 mg/l, DMSO/Tween 20; assay type: cell-based; further: key: 0: no activity; 0.1: trace of coloration; 0.5: very pale coloration; 1: distinct coloration of low intensity; 2: clear coloration of medium intensity; 3: intense coloration; 4: very intense coloration
Description: as §1

## CCCCC(CC)CCC(CC(C)C)OS(=O)(=O)O (centres unmarked) [Tergitol 4, 7-ethyl-2-methyl-4-undecanoate hydrogensulfate or its sodium salt]
[1]; 0.001 ml/l, 24 h
  intensity of coloration: 0.1
[1]; 0.001 ml/l, 48 h
  intensity of coloration: 0.5
[1]; 0.01 ml/l, 24 h
  intensity of coloration: 0.5
[1]; 0.01 ml/l, 48 h
  intensity of coloration: 1
[1]; 0.1 ml/l, 24 h
  intensity of coloration: 0.1
[1]; 0.1 ml/l, 48 h
  intensity of coloration: 0.5
[1]; 1 ml/l (1st col), 24 h
  intensity of coloration: 0.5
[1]; 1 ml/l (1st col), 48 h
  intensity of coloration: 0.5
[1]; 1 ml/l (2nd col), 24 h
  intensity of coloration: 0.5
[1]; 1 ml/l (2nd col), 48 h
  intensity of coloration: 1
[2]; 2 ml/l, 24 h
  color: gray
  intensity of coloration: 2
[2]; 2 ml/l, 48 h
  color: gray
  intensity of coloration: 3
[2]; 4 ml/l, 24 h
  color: gray
  intensity of coloration: 3
[2]; 4 ml/l, 48 h
  color: gray
  intensity of coloration: 3
[2]; 8 ml/l, 24 h
  color: gray
  intensity of coloration: 0.5
[2]; 8 ml/l, 48 h
  color: gray
  intensity of coloration: 2
[2]; 16 ml/l, 24 h
  color: gray
  intensity of coloration: 0.1
[2]; 16 ml/l, 48 h
  color: gray
  intensity of coloration: 1
[3]; 24 h
  color: —
[3]; 48 h
  color: —
[4]; 2 ml/l, 24 h
  color: gray
  intensity of coloration: 2
[4]; 2 ml/l, 48 h
  color: gray
  intensity of coloration: 3
[4]; 4 ml/l, 24 h
  color: gray
  intensity of coloration: 2
[4]; 4 ml/l, 48 h
  color: gray
  intensity of coloration: 4
[4]; 8 ml/l, 24 h
  color: gray
  intensity of coloration: 2
[4]; 8 ml/l, 48 h
  color: gray
  intensity of coloration: 4
[4]; 16 ml/l, 24 h
  color: gray
  intensity of coloration: 2
[4]; 16 ml/l, 48 h
  color: gray
  intensity of coloration: 4
[5]; 0.001 ml/l, 24 h
  intensity of coloration: 2
[5]; 0.001 ml/l, 48 h
  intensity of coloration: 2
[5]; 0.01 ml/l, 24 h
  intensity of coloration: 2
[5]; 0.01 ml/l, 48 h
  intensity of coloration: 3
[5]; 0.1 ml/l, 24 h
  intensity of coloration: 3
[5]; 0.1 ml/l, 48 h
  intensity of coloration: 3
[5]; 1 ml/l (1st col), 24 h
  intensity of coloration: 2
[5]; 1 ml/l (1st col), 48 h
  intensity of coloration: 3
[5]; 1 ml/l (2nd col), 24 h
  intensity of coloration: 2
[5]; 1 ml/l (2nd col), 48 h
  intensity of coloration: 3
[6]
  color: gray
[6]; sodium salt
  intensity of coloration: 3 and 3.5
[7]; 24 h
  color: —
[7]; 48 h
  color: —
[8]; 2 ml/l, 24 h
  color: gray
  intensity of coloration: 2.5
[8]; 2 ml/l, 48 h
  color: gray
  intensity of coloration: 3
[8]; 4 ml/l, 24 h
  color: gray
  intensity of coloration: 2
[8]; 4 ml/l, 48 h
  color: gray
  intensity of coloration: 2.5
[8]; 8 ml/l, 24 h
  color: gray
  intensity of coloration: 0.5
[8]; 8 ml/l, 48 h
  color: gray
  intensity of coloration: 1.5
[8]; 16 ml/l, 24 h
  color: gray
  intensity of coloration: 0.5
[8]; 16 ml/l, 48 h
  color: gray
  intensity of coloration: 2
[9]; 2 ml/l, 24 h
  color: gray
  intensity of coloration: 3.5
[9]; 2 ml/l, 48 h
  color: gray
  intensity of coloration: 3.5
[9]; 4 ml/l, 24 h
  color: gray
  intensity of coloration: 4
[9]; 4 ml/l, 48 h
  color: gray
  intensity of coloration: 4
[9]; 8 ml/l, 24 h
  color: gray
  intensity of coloration: 4
[9]; 8 ml/l, 48 h
  color: gray
  intensity of coloration: 4
[9]; 16 ml/l, 24 h
  color: gray
  intensity of coloration: 4
[9]; 16 ml/l, 48 h
  color: gray
  intensity of coloration: 4
[10]; 0.001 to 1 ml/l tested
  effect on the expression of the esterase activity: positive effect
[10]; excessive Tergitol 4 concentrations
  growth on culture medium: cannot develop on a culture medium
[11]; 2 ml/l, 24 h
  color: gray
  intensity of coloration: 2
[11]; 2 ml/l, 48 h
  color: gray
  intensity of coloration: 2.5
[11]; 4 ml/l, 24 h
  color: gray
  intensity of coloration: 3.5
[11]; 4 ml/l, 48 h
  color: gray
  intensity of coloration: 3.5
[11]; 8 ml/l, 24 h
  color: gray
  intensity of coloration: 3.5
[11]; 8 ml/l, 48 h
  color: gray
  intensity of coloration: 3.5
[11]; 16 ml/l, 24 h
  color: gray
  intensity of coloration: 3.5
[11]; 16 ml/l, 48 h
  color: gray
  intensity of coloration: 4
[12]; 2 ml/l, 24 h
  color: gray
  intensity of coloration: 2
[12]; 2 ml/l, 48 h
  color: gray
  intensity of coloration: 2.5
[12]; 4 ml/l, 24 h
  color: gray
  intensity of coloration: 3
[12]; 4 ml/l, 48 h
  color: gray
  intensity of coloration: 3
[12]; 8 ml/l, 24 h
  color: gray
  intensity of coloration: 3.5
[12]; 8 ml/l, 48 h
  color: gray
  intensity of coloration: 3.5
[12]; 16 ml/l, 24 h
  color: gray
  intensity of coloration: 3.5
[12]; 16 ml/l, 48 h
  color: gray
  intensity of coloration: 4
[13]; 0.001 ml/l, 24 h
  intensity of coloration: 2
[13]; 0.001 ml/l, 48 h
  intensity of coloration: 2
[13]; 0.01 ml/l, 24 h
  intensity of coloration: 2.5
[13]; 0.01 ml/l, 48 h
  intensity of coloration: 3
[13]; 0.1 ml/l, 24 h
  intensity of coloration: 2
[13]; 0.1 ml/l, 48 h
  intensity of coloration: 3
[13]; 1 ml/l (1st col), 24 h
  intensity of coloration: 2
[13]; 1 ml/l (1st col), 48 h
  intensity of coloration: 3
[13]; 1 ml/l (2nd col), 24 h
  intensity of coloration: 2
[13]; 1 ml/l (2nd col), 48 h
  intensity of coloration: 3

— patent US7235379B2, “Method and medium for the detection/identification of microorgranisms with esterase activity” (Bio Merieux, priority 2000, dated 2007)
